Test results as given in ChEMBL document CHEMBL1201862, “PubChem BioAssay data set” (2004).
The source made the active and inactive calls.

Tests used:
[1] = luciferase reporter signal suppression in cells – H4 neuroglioma cells, luminescence, dose response (AID 1990); assay type: functional, cell-based
[2] = Luminescence Cell-Based Dose Response HTS to Identify Inhibitors of 5'UTR Stem-Loop Driven Prion Protein mRNA Translation in H4 Neuroglioblastoma Cells. [Related pubchem assays: 1827 (Project Summary), 1813 (Primary HTS)]; assay type: functional
[3] = alpha-synuclein stem-loop luciferase translation blockers – H4 neuroglioma cells, luminescence, confirmation (AID 1988); assay type: functional, cell-based
[4] = target: T1, Protein skinhead-1 (Caenorhabditis elegans, UniProt P34707); assay type: functional
T1 sequence (P34707 whole entry): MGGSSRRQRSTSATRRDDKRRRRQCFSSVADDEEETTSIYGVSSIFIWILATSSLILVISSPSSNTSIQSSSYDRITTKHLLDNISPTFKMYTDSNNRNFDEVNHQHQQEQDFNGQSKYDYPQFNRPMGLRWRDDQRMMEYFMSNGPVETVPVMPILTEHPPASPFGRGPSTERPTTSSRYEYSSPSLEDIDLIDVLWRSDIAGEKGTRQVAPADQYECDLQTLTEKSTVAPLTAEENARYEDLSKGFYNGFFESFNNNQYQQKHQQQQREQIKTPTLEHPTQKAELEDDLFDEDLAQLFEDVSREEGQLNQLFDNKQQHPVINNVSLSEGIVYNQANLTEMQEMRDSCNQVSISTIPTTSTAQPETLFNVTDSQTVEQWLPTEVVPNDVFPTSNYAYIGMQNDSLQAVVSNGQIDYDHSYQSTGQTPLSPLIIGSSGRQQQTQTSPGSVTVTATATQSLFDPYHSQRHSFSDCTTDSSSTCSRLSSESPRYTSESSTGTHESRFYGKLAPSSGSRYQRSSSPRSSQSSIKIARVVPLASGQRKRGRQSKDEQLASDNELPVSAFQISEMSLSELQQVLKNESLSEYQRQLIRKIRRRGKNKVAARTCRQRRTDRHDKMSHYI

[5] = cells; assay type: functional
[6] = target: T2, RNA-binding protein pos-1 (Caenorhabditis elegans, UniProt G5EF15); assay: disruptors of C. elegans POS-1 RNA interaction – biochemical, fluorescence polarization, dose response (AID 1964);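 also: purified POS-1 fused to maltose binding protein made in E. coli; potency of compounds blocking POS-1 binding to fluorescent RNA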
T2 sequence (G5EF15 whole entry): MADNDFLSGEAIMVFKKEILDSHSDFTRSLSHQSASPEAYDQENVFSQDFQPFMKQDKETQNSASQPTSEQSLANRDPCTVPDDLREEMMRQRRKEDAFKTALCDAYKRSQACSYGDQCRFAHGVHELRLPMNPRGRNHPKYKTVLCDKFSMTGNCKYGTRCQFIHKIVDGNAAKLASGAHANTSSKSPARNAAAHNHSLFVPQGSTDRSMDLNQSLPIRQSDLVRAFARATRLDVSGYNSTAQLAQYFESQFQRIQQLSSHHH

[7] = target: T3, Zinc finger protein mex-5 (Caenorhabditis elegans, UniProt Q9XUB2); assay: potency of MEX-5 RNA-binding blockers – biochemical, C. elegans, fluorescence polarization, dose response (AID 1960)
T3 sequence (Q9XUB2 whole entry): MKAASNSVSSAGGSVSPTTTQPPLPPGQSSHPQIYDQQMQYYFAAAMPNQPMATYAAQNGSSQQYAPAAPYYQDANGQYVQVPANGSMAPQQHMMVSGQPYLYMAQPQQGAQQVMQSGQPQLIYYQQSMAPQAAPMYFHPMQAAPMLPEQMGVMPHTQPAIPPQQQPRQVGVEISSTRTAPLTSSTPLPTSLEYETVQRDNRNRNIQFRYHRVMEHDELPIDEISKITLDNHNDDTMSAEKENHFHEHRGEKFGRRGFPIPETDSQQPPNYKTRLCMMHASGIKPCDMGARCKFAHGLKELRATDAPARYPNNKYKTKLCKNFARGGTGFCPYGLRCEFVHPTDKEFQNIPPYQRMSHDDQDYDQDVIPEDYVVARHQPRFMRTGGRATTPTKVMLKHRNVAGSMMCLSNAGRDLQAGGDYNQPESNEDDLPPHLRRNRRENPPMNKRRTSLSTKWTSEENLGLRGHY

[8] = target: T4, Replicative DNA helicase DnaB (Mycobacterium tuberculosis, UniProt P9WMR3); assay: DnaB intein splicing inhibitors, dose response, biochemical, cell-free fluorescence (AID 449749); assay type: functional
T4 sequence (P9WMR3 whole entry): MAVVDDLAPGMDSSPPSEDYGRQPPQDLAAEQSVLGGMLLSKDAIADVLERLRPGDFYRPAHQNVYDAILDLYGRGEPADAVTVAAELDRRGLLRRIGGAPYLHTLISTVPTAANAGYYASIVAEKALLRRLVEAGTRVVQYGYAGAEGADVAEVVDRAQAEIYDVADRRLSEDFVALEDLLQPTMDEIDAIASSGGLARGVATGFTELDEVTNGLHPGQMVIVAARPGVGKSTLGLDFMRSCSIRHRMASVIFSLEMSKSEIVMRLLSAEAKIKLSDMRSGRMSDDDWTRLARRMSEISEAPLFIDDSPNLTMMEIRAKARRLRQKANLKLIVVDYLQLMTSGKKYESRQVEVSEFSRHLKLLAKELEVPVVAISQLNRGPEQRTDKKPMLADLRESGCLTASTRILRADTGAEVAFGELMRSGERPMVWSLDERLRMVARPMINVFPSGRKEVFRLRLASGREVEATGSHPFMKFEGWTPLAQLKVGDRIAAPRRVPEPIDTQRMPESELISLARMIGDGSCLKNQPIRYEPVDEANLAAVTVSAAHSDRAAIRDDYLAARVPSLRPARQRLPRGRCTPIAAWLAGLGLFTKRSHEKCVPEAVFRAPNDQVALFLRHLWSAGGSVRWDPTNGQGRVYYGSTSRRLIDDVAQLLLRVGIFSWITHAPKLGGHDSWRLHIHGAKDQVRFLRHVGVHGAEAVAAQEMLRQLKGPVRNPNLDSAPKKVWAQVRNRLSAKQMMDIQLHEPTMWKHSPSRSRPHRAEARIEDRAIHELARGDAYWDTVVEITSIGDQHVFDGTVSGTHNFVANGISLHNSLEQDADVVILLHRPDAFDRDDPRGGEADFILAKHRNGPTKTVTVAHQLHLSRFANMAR

[9] = target: T5, Protein RecA (Mycobacterium tuberculosis, UniProt P9WHJ3); assay: Fluorescence Cell-Free Homogeneous Dose Retest to Identify Inhibitors of RecA-Intein Splicing Activity. [Related pubchem assays (depositor defined):AID2097, AID2223, AID489010, AID492950]; assay type: functional
T5 sequence (P9WHJ3 whole entry): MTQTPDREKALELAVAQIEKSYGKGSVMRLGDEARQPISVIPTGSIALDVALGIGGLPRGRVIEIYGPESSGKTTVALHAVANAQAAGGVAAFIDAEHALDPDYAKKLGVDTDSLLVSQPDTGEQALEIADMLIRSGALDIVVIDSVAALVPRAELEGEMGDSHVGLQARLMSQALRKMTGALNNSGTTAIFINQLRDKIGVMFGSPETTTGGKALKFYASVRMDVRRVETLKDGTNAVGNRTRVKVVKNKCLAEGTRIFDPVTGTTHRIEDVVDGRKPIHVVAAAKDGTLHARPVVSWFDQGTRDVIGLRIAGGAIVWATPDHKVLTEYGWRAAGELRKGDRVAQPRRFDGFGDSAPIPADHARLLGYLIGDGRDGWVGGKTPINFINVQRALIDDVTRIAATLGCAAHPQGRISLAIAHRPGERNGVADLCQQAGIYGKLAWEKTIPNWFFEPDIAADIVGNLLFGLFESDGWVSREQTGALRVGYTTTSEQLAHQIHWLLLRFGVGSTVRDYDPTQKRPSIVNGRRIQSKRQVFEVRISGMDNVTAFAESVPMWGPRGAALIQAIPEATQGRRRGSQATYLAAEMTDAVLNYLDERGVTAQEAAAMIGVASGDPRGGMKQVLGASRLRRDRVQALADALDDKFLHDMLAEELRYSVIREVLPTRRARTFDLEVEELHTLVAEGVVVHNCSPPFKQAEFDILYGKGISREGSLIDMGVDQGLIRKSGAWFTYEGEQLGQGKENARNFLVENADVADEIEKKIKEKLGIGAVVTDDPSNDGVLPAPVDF

[10] = Luminescence Cell-Based Dose Retest to Confirm Inhibitors of Cancer Stem Cells. [Related pubchem assays (depositor defined):AID2717, AID2721]; assay type: functional; details: Homo sapiens
[11] = tested on: INS1; assay: INS-1E survival protection against cytokine death – cell-based, luminescence, retest, dose response (AID 449756); assay type: functional; details: Rattus norvegicus;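 also: cell death triggered by IL-1 beta plus TNF-alpha plus IFN-gamma mixture; protective hits raise ATP signal compared with cytokine alone wells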
[12] = target: T6, Rac GTPase-activating protein 1 (Homo sapiens, UniProt Q9H0H5); assay: blockers of MgcRacGAP-driven Rac1 GTP hydrolysis – biochemical, ADP Hunter fluorescence, primary and confirmatory, confirmation (AID 624330); assay type: functional
T6 sequence (Q9H0H5 whole entry): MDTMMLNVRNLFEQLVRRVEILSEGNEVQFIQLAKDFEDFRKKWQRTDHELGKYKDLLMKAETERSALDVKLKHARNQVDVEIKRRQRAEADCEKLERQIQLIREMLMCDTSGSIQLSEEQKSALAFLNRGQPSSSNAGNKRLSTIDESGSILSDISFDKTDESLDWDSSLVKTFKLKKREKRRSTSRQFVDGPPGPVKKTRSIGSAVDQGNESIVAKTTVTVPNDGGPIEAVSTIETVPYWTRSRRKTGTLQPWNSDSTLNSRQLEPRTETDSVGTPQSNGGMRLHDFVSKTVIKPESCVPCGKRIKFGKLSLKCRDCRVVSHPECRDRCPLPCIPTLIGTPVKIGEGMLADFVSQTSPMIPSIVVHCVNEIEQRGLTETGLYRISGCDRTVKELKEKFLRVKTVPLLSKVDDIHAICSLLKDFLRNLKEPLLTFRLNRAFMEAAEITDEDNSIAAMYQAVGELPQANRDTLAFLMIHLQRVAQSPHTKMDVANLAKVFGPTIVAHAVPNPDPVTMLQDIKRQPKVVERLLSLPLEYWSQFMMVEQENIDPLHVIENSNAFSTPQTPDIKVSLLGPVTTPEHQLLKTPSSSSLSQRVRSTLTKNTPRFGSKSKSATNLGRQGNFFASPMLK

Compound	IC50 [4]	AC50 [8]	EC50 [9]	other results
Cc1cccc(C)c1OCC(O)CN(Cc1ccccc1O)C1CCCCC1 (stereo unspecified)	> 100 µM (inactive)			EC50 [1]: > 120 µM (not active); EC50 [2]: > 120 µM (not active); EC50 [3]: > 120 µM (not active)
O=C(Oc1ccccc1)c1cc2ccccc2o1				IC50 [5]: 18.4 µM (active)
CCOC(=O)c1cc2cc3ccccc3cc2oc1=O				IC50 [5]: 10.9 µM (active)
N#C/C(=C/c1cccn1-c1cccc(C(=O)O)c1)c1ccc(F)cc1		14.1 µM (active)	> 380 µM (inconclusive)	EC50 [6]: > 300 µM (not active); EC50 [7]: > 300 µM (not active)
Cc1cc(C(=O)CSc2nnc(-c3cccs3)n2Cc2ccccc2)c(C)n1C	> 100 µM (inactive)			
CS(=O)(=O)c1ccc(C(=O)OCC(=O)NC23CC4CC(CC(C4)C2)C3)cc1[N+](=O)[O-]		1.18 µM (active)	1.32 µM (active)	AC50 [10]: 2.4 µM (active)
Cc1cccc(CSC(Nc2ccc(F)cc2)=C(C#N)C#N)c1		7.03 µM (active)	10.9 µM (active)	AC50 [11]: 4.83 µM (active)
O=C(Oc1ccccc1)c1ccc(COC(=O)c2cnccn2)cc1				IC50 [5]: 6.29 µM (active)
CC(=O)Nc1ccc(NC(=O)C2Cc3c(-c4cccc(F)c4)ccnc3O2)cc1 (stereo unspecified)	> 100 µM (inactive)			
O=C(N/N=C/c1ccc(O)cc1)c1cccc(C(F)(F)F)c1				IC50 [5]: 38.6 µM (active); IC50 [12]: 83.9 µM (active)
COC1(OC)C(/C=C/c2ccc(C)cc2)C(C#N)(C#N)C1(OC)OC (stereo unspecified)		> 380 µM (inactive)	> 380 µM (inactive)	
CC1OC(c2ccccc2)OC2COC(c3ccccc3)OC12 (stereo unspecified)	> 100 µM (inactive)			
Cc1ccc2[nH]c3c(c2c1)CN(C(=O)CN1CCSCC1)CC3		> 380 µM (inconclusive)	0.132 µM (active)	
C(#Cc1ccc2c(c1)COc1c3ccccc3nn1-2)c1ccccc1	> 100 µM (inactive)			EC50 [6]: > 300 µM (not active); EC50 [7]: 169 µM (active)
CCO/C(O)=C1\C(C)=NC(SCc2cc(O)[nH]n2)=C(C#N)C1c1cccs1 (stereo unspecified)		6.16 µM (active)	4.99 µM (active)	
O=C1c2ccccc2-c2nnc(-c3ccc(O)cc3)cc21		15.4 µM (active)	1.13 µM (active)	
CCCCOC(=O)Nc1ccc(C(C)C)cc1	42.4 µM (active)			
Cn1c(SCC(=O)NCC2CCCO2)ncc(C(=O)Nc2ccc(Cl)cc2)c1=O (stereo unspecified)		> 380 µM (inactive)	1.13 µM (active)	
CN(CCC#N)C(=O)Cn1nc(Cc2ccncc2)c2ccccc2c1=O		> 380 µM (inactive)	> 380 µM (inactive)	
O=C(/C=C/c1ccco1)N1CCc2ccccc21	48.6 µM (active)			
C(=C\c1ccc2ccccc2n1)/c1ccccc1	24.8 µM (active)			
Cc1cc(C)c(NC(=O)C[S+]([O-])CC(=O)Nc2ccc(N3CCOCC3)cc2)c(C)c1 (stereo unspecified)	> 100 µM (inactive)			
